Here are results for nine compounds from ChEMBL document CHEMBL1155993, “5-(2-Pyrimidinyl)-imidazo[1,2-a]pyridines are antibacterial agents targeting the ATPase domains of DNA gyrase and topoisomerase IV” (Bioorg Med Chem Lett, 2009).

The structures appear in SMILES notation. ≈ marks a conversion by molar mass, not a printed value.

In series [1] the target is DNA gyrase subunit B (Streptococcus pneumoniae serotype 4 (strain ATCC BAA-334 / TIGR4), UniProt P0A4L9). As to the kind of experiment: Inhibition of Streptococcus pneumoniae SP-3 gyrB by enzyme coupled phosphate assay.
Sequence of DNA gyrase subunit B (P0A4L9 whole entry): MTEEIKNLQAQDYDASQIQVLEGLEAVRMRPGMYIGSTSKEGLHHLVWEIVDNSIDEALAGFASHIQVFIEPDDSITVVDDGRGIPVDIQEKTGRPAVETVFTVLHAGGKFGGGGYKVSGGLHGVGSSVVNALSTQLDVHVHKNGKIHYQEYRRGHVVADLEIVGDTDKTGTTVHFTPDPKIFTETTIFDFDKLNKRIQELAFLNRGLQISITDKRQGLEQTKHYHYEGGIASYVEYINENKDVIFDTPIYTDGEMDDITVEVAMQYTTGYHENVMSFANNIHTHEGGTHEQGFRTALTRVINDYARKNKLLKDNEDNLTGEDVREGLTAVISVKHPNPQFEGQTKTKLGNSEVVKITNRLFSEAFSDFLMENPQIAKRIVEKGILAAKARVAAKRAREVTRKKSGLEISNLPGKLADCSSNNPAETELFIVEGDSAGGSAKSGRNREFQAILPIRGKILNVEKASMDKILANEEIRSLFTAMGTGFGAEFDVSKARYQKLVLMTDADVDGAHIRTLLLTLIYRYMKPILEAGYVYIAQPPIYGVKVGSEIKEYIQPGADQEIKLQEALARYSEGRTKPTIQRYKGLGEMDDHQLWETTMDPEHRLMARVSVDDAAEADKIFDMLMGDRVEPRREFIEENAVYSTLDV
Series [2] has as its target T1, ParE (Streptococcus pneumoniae, UniProt Q7X1P7).
T1 sequence (Q7X1P7 whole entry): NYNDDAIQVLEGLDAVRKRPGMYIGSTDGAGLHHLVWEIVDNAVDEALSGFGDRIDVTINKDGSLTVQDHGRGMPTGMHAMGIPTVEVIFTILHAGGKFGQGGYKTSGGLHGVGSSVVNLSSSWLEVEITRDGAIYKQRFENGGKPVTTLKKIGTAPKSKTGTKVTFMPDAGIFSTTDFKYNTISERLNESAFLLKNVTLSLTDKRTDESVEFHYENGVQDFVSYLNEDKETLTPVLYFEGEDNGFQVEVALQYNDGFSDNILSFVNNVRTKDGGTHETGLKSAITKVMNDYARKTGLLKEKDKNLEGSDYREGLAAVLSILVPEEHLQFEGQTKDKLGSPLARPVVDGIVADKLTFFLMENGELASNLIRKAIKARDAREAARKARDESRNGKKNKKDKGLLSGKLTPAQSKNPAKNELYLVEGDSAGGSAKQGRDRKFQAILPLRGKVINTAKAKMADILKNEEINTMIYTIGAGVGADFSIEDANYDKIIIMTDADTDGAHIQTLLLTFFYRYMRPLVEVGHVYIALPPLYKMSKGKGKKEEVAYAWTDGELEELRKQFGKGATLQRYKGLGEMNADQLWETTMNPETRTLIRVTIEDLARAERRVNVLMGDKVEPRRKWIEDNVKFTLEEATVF
As to the kind of experiment: Inhibition of Streptococcus pneumoniae SP-3 parE after 30 mins.

Series [3] has as its system Staphylococcus aureus. The series is described as follows: Antibacterial activity against Staphylococcus aureus UC76 by NCCLS method. In kind it is functional, organism-based.
Series [4] deals with Staphylococcus aureus. The series is described as follows: Antibacterial activity against methicillin resistant Staphylococcus aureus SA-1417 by NCCLS method. Format: functional.
Series [5] concerns Streptococcus pyogenes. As to the kind of experiment: Antibacterial activity against Streptococcus pyogenes SP1-1 by NCCLS method. Format: functional.
Series [6] relates to Streptococcus pneumoniae. The series is described as follows: Antibacterial activity against Streptococcus pneumoniae SP-3 by NCCLS method. Format: functional.
Series [7] deals with Streptococcus pneumoniae. As to the kind of experiment: Antibacterial activity against fluoroquinolone resistant Streptococcus pneumoniae SP-3765 by NCCLS method. In kind it is functional.
Series [8] relates to Streptococcus pyogenes. As to the kind of experiment: Antibacterial activity against Streptococcus pyogenes SP1-1 infected in po dosed mouse sepsis model. Format: functional. The following applies: SP1-1, po, read-out: PD50.
For series [9], the system named is Streptococcus pneumoniae. The series is described as follows: Antibacterial activity against Streptococcus pneumoniae SV-1 infected in po dosed mouse lung. The following applies: SV-1, po, read-out: PD50. In kind it is functional.
A short description of series [10]: Bioavailability in rat. Format: ADME, organism-based. The following applies: in vivo.
Series [11] is described as follows: Clearance in rat. Format: ADME, organism-based. The following applies: in vivo.
Series [12] can be described thus: Volume of distribution in rat. The following applies: in vivo. Format: ADME, organism-based.
Series [13] concerns Staphylococcus aureus. As to the kind of experiment: Antibacterial activity against methicillin resistant Staphylococcus aureus 01A-1095 by NCCLS method. In kind it is functional.
Series [14] concerns Streptococcus pyogenes. The series is described as follows: Antibacterial activity against Streptococcus pyogenes C203 by NCCLS method. In kind it is functional.
The test system of series [15] is Streptococcus pneumoniae. As to the kind of experiment: Antibacterial activity against Streptococcus pneumoniae D39 by NCCLS method. In kind it is functional.

As usually defined, the IC50 is the concentration that inhibits the measured activity by half. Read a high IC50 as a need for much substance. In general, MIC refers to the least concentration at which growth counts as inhibited. On to `CCNC(=O)Nc1cn2c(-c3ncc(C)cn3)cc(-c3ccn(CCF)c(=O)c3)cc2n1`, for which the IC50 in series [1] stood at 376 nM; in [2] it was 10000 nM. Besides, the MIC stood at 0.5 µg/mL (≈ 1.15 µM) in [3] (read-out: MIC); 1 µg/mL (≈ 2.3 µM) in [4]; 0.5 µg/mL (≈ 1.15 µM) in series [5]; 0.125 µg/mL (≈ 0.287 µM) in [6]; 0.5 µg/mL (≈ 1.15 µM) in series [7].
Consider `CCNC(=O)Nc1cn2c(-c3ncc(C)cn3)cc(-c3ccn(CC)c(=O)c3)cc2n1`, for which the IC50 in [1] is 51 nM; in series [2], 624 nM. Further, the MIC in [3] (read-out: MIC) is 0.25 µg/mL (≈ 0.599 µM); in [4], 0.5 µg/mL (≈ 1.2 µM); in series [5] it was 1 µg/mL (≈ 2.4 µM); in [6], 0.06 µg/mL (≈ 0.144 µM); in series [7] it was 0.125 µg/mL (≈ 0.299 µM).
Broadly, the bioavailability is dose-corrected exposure relative to a reference, in per cent. As usually defined, the clearance is the volume of plasma or blood freed of the substance per unit of time. For orientation: Vd means the apparent volume that relates the amount in the body to the concentration in plasma or blood. Read a low Vd as little distribution into tissue. In the case of `CCNC(=O)Nc1cn2c(-c3ncccn3)cc(-c3cccnc3)cc2n1`, the IC50 in series [1] was 48 nM; in series [2], 447 nM. Further, the MIC in series [3] (read-out: MIC) amounted to 0.5 µg/mL (≈ 1.39 µM); in series [4] it was 0.5 µg/mL (≈ 1.39 µM); in series [5], 0.25 µg/mL (≈ 0.696 µM); in [6], 0.125 µg/mL (≈ 0.348 µM); in series [7], 0.25 µg/mL (≈ 0.696 µM). For the same compound, the ED50 amounted to 24 mg/kg in series [8] and 35 mg/kg in [9]. For the same compound, the bioavailability in series [10] came to 56%. In series [11], this compound had a clearance of 33 mL/min/kg. The Vd in series [12] is 1.6 L/kg.
As to `CCNC(=O)Nc1cn2c(-c3ncc(C)cn3)cc(-c3cccnc3)cc2n1`, the IC50 in [1] came out at 53 nM; in series [2], 250 nM. Also, the MIC in series [3] (read-out: MIC) was 0.5 µg/mL (≈ 1.34 µM); in [4], 0.5 µg/mL (≈ 1.34 µM); in series [5] it was 0.5 µg/mL (≈ 1.34 µM); in [6], 0.125 µg/mL (≈ 0.335 µM); in series [7], 0.125 µg/mL (≈ 0.335 µM). In addition, the values for the ED50 in [8] and in series [9] were 24 mg/kg and 21 mg/kg, respectively. The compound further showed a bioavailability in series [10] of 99%. The clearance in [11] was 18 mL/min/kg. In series [12], the Vd was 1.3 L/kg.
As to `CCCn1ccc(-c2cc(-c3ncc(C)cn3)n3cc(NC(=O)NCC)nc3c2)cc1=O`, the figures for the IC50 in series [1] and in [2] were 97 nM and 1020 nM, respectively. The MIC in series [3] (read-out: MIC) turned out to be 0.125 µg/mL (≈ 0.29 µM); in [4], 0.25 µg/mL (≈ 0.579 µM); in [5], 0.25 µg/mL (≈ 0.579 µM); in series [6] it was 0.06 µg/mL (≈ 0.139 µM); in series [7] it was 0.06 µg/mL (≈ 0.139 µM).
As for `CCNC(=O)Nc1cn2c(-c3ncc(C)cn3)cc(-c3ccn(CCOC)c(=O)c3)cc2n1`, the IC50 amounted to 401 nM in series [1] and 1640 nM in series [2]. The MIC in series [3] (read-out: MIC) is 0.06 µg/mL (≈ 0.134 µM); in [4], 0.25 µg/mL (≈ 0.559 µM); in series [5], 0.06 µg/mL (≈ 0.134 µM); in series [6], 0.06 µg/mL (≈ 0.134 µM); in [7], 0.125 µg/mL (≈ 0.279 µM).
Turning to `CCNC(=O)Nc1cn2c(-c3ncc(C)cn3)cc(-c3ccn(CC(=O)O)c(=O)c3)cc2n1`, the concentration for half-maximal inhibition (IC50) worked out at 98 nM in series [1] and 2140 nM in [2]. Further, the MIC in [3] (read-out: MIC) worked out at 64 µg/mL (≈ 143 µM); in series [4] it was 32 µg/mL (≈ 71.5 µM); in [5] it was 64 µg/mL (≈ 143 µM); in series [6], 64 µg/mL (≈ 143 µM); in series [7], 64 µg/mL (≈ 143 µM).
As for `CCNC(=O)Nc1cn2c(-c3ncc(C)cn3)cc(-c3cnc(OC)nc3)cc2n1`, the IC50 came out at 132 nM in series [1] and 3640 nM in [2]. Moreover, the MIC in series [3] (read-out: MIC) is 16 µg/mL (≈ 39.6 µM); in [4] it was over 64 µg/mL; in series [5], 32 µg/mL (≈ 79.1 µM); in [6], 16 µg/mL (≈ 39.6 µM); in [7] it was 16 µg/mL (≈ 39.6 µM).
In series [2], `CO[C@@H]1[C@@H](OC(N)=O)[C@@H](O)[C@H](Oc2ccc3c(O)c(NC(=O)c4ccc(O)c(CC=C(C)C)c4)c(=O)oc3c2C)OC1(C)C` [NOVOBIOCIN] returned an IC50 of 2030 nM. Also, the MIC in series [3] worked out at 0.125 µg/mL (≈ 0.204 µM); in [7], 4 µg/mL (≈ 6.53 µM); in [13] it was 0.125 µg/mL (≈ 0.204 µM); in series [14] it was 8 µg/mL (≈ 13.1 µM); in series [15], 4 µg/mL (≈ 6.53 µM).
